Source: patent US12703698B2, “Inhibitors of interleukin-1 receptor-associated kinases 1 and 4” (The University of Rochester, priority 2020, dated 2026)

Key:
MDS-L cells = assay: Colony formation of MDS-L cells in vitro; format: cell-based; details: for colony formation of MDS-L cells: FIGS. 7A-7C; for colony formation potential of MDS-L cells: FIGS. 6A-6B
Source text: FIGS. 6A and 6B show the effect of UR241-1 and UR241-2 on the colony formation potential of MDS-L cells in vitro.

THP-1 cells = assay: Colony formation of THP-1 cells in vitro; format: cell-based, human; details: FIGS. 4A-4C
Source text: FIGS. 4A, 4B and 4C show the effect of MCC950 (reference), UR241-1, and UR241-2 on the colony formation potential of THP-1 cells in vitro.

[1] = test system: IL1b signaling events in THP-1 cells; assay: Western blot of IL1b signaling events in THP-1 cells; format: cell-based, human; details: THP-1 cells at 10 and 30 minutes; hIL-1β 10 ng/mL, UR241-2 4 μM, WB 30 μg/lane; FIG. 1E
Description: Whole cell lysates of THP1 treated with vehicle, hIL-1B (10 ng/mL), UR241-1 (10 μM) and UR241-2 (4 μM) for 10 minutes and 30 minutes. 30 μg proteins were electrophoresed and probed with phospho-/native p65, phospho-p38, pAKT, and GAPDH.

murine MLL-AF9 leukemia = assay: Colony forming activity in methylcellulose culture, MLL-AF9 leukemia; format: cell-based

| Structure (SMILES) | colony formation of MDS-L cells (MDS-L cells) | colony formation potential of THP-1 cells (THP-1 cells) | colony formation potential of MDS-L cells (MDS-L cells) | inhibition of IL1b signaling events [1] | inhibition of colony forming activity (murine MLL-AF9 leukemia; UR241-2 4 uM with MCC950 100 nM, FIG. 1F) | inhibition of colony forming activity (murine MLL-AF9 leukemia; UR241-2 4 uM without MCC950, FIG. 1F) |
| --- | --- | --- | --- | --- | --- | --- |
| CC(C)(O)c1coc(S(=O)(=O)NC(=O)Nc2c3c(cc4c2CCC4)CCC3)c1 [MCC950, reference compound] | inhibited colony formation of MDS-L cells in vitro, dose-dependently | suppressed the colonies formed by THP-1 cells dose-dependently | – | – | – | – |
| CC[C@@H]1[C@H](F)C(=O)N[C@@H]1COc1nccc2cc(C(N)=O)c(OC)cc12 [PF06650833, reference compound] | inhibited colony formation of MDS-L cells in vitro, dose-dependently | – | – | – | – | – |
| COc1cc(N2CCS(=O)(=O)CC2)ccc1NC(=O)c1cccc(-c2cc[nH]n2)c1 [UR241-1] | – | suppressed the colonies formed by THP-1 cells dose-dependently | suppressed the colonies formed by MDS-L cells dose dependently | – | – | – |
| COc1cc(N2CCS(=O)(=O)CC2)ccc1NC(=O)c1cccc(-c2cc[nH]n2)n1 [UR241-2] | inhibited colony formation of MDS-L cells in vitro, dose-dependently | suppressed the colonies formed by THP-1 cells dose-dependently | suppressed the colonies formed by MDS-L cells dose dependently | inhibition | inhibition of colony forming activity | inhibition of colony forming activity |
